Test results reported in patent publication US20240000748A1, “FORMULATIONS AND METHODS FOR TREATING ACUTE CANNABINOID OVERDOSE” (Anebulo Pharmaceuticals, Inc., priority 2020, published 2024).

Assays:
[1] = system: rat; assay: Repeated dose (28 day) toxicity study in rat; assay type: in vivo; conditions: repeated dose 28 day
Experimental: Repeated dose (28 day) toxicity studies were conducted using ANEB-001 in two species, rat and primate, selected on the basis of acceptable bioavailability and comparison of metabolite profiles with those in human liver microsomes.

[2] = system: C57 mice; assay: Reversal of THC-induced hypolocomotion in mice; assay type: in vivo; conditions: 30 min pre-test
Experimental: Reversal of THC-induced hypolocomotion in mice: Six C57 mice (Charles River, Wilmington, MA) were administered […] (THC) 3 mg/kg ip, 10 min pre-test. […] In this apparatus, four qualitatively different measures of locomotor activity are automatically scored. […] The magnitude of the effect is similar to that elicited by rimonabant given at 3 mg/kg po, and given 30 min pre-test.

| SMILES | findings at dose levels of 75 mg/kg/day ([1]; 75 mg/kg/day) | no observed adverse effect level ([1]; highest dose tested) [mg/kg/day] | action of THC on the total active time parameter of locomotor measures ([2]; 30 mg/kg orally, THC 3 mg/kg ip 10 min pre-test, 15 min in locomotor activity cages) | magnitude of the effect on THC-induced hypolocomotion (compared with ANEB-001) ([2]; 3 mg/kg po) |
| --- | --- | --- | --- | --- |
| CC(C)(C)NC(=O)N1CC(O[C@H](c2ccc(Cl)cc2)c2ccccc2C(F)(F)F)C1 [ANEB-001, 3-[(R)-2-(trifluoromethyl)-4′-chlorobenzhydryloxy]-N-(tert-butyl)azetidine-1-carboxamide] | hepatic changes consistent with an adaptive response | 75 | significantly reversed | – |
| Cc1c(C(=O)NN2CCCCC2)nn(-c2ccc(Cl)cc2Cl)c1-c1ccc(Cl)cc1 [rimonabant, reference compound] | – | – | – | similar |
